Source: US12377095B2, “Use of ligustrazine nitrone derivatives in treatment and prevention of diabetic complication diseases” (QINGDAO HAILAN PHARMACEUTICALS CO., LTD., priority 2019, dated 2025)

What was measured:
STZ-induced DKD rats = assay: HE staining of kidney tissue, STZ-induced SD rat DKD model; type: in vivo
Method: Before the injection, the rats were fasted for 12 hours without water. After weighing, the rats were injected with 55 mg/kg STZ intraperitoneally (STZ needs to be injected quickly, and the injection was completed within 10 minutes), and then returned to the cage to ensure that the rats had sufficient drinking water for 24 hours. Rats were injected with an equal volume of citrate buffer (pH 4.5). After STZ injection for 3 weeks, blood was collected from the tail vein, and blood glucose ≥16.7 mmol/L was used as the criteria for the standard of the rats.
The route of administration is intragastric administration. TBN was administered twice a day (fixed at 9:00-10:00 am and 3:00-4:00 pm), and Losartan was administered once a day (fixed at 9:00-10:00 am) continuously for 6 weeks.
At the end of the experiment, kidney tissues were quickly separated, fixed with 4% paraformaldehyde and embedded in paraffin, serially sliced, 5 μm each, dried at 37° C. for 1 h, and then stained with hematoxylin and eosin (HE). The process is briefly as follows: paraffin sections were taken out of the 65° C. oven and immediately put in xylene to dewax and rehydrated with gradient alcohol, stained with hematoxylin staining solution for 10 minutes, and microscopically controlled alcohol differentiation with 1% hydrochloric acid was performed until the chromatin of the nucleus and the nucleus becomes clear; 1% ammonia water-ethanol solution is blue; 0.5% eosin Y-ethanol solution is stained for 3 min, and finally dehydrated routinely, mounted, and the tissue morphology changes are observed under a light microscope. […] The glomerular volume of rats in the DKD group of the Vehicle group increased, the mesangial area was diffusely widened, the mesangial cells were proliferated, the capillary loops were expanded, the mesangial matrix increased, and the glomerular capillary basement membrane was irregularly thickened. Renal pathological changes such as vacuole deformation, shedding of renal tubular epithelial cells and infiltration of a large number of inflammatory cells (FIG. 9A).

db/db mice [1] = assay: Serum iron content of db/db mice; type: in vivo, mouse; design: iron content in the serum: unit not given here; details: for iron content in the serum: 6 weeks, db/db model group 28.13±4.46
From the text: (§1) db/db mice are congenital obese type 2 DKD mice with spontaneous mutations in the leptin receptor (Leptin receptor, Lepr) due to a point mutation in the leptin receptor gene GT located on chromosome 4. The course of polyphagia, polyuria, diabetes and hyperglycemia is similar to that of humans, and it is currently the most widely used type 2 spontaneous animal model of DKD. The db/db mice have a series of complications with the aggravation of diabetes. The main pathological changes of renal tissue are the expansion of the glomerular mesangial interstitium, the thickening of the glomerular basement membrane, and the excessive accumulation of extracellular matrix. However, the glomerular mesangium of db/db mice changes relatively slowly, and the glomerular mesangium will not be dissolved or nodular glomerulosclerosis, and there is no progressive renal insufficiency.
(§2) Six-week-old db/db mice were purchased, and start the administration after adaptive feeding for 1 week (i.e., 7-week-old). TBN is administered twice a day (fixed by starting from 9:00-10:00 am and 3:00-4:00 pm, with an interval of 6 hours), and the positive control drug Losartan was administered once a day (fixed at 9:00-10:00 am) for 6 weeks.
At the end of the experiment, serum iron content was measured by using automatic biochemical analyzer.

db/db mice [2] = assay: Serum EPO content of db/db mice; type: in vivo, mouse; design: serum EPO content: unit not given here; details: for serum EPO content: 6 weeks, db/db group 257.19±67.80 ng/L
From the text: as §1, §2
At the end of the experiment, after rats were anesthetized, the blood was taken from the abdominal aorta, allowed to stand for 1 h, centrifuged at 3000 rmp for 10 min and with the supernatant collected, and serum erythropoietin levels were measured according to the kit instructions.

STZ-induced SHR rats [3] = assay: Body weight of STZ-induced SHR rats; type: in vivo, rat; details: 60 mg/kg twice/day, 6 weeks
Method: (§3) 6 W-age SHR rats were abstained from food but not water for 12 h before injection, and then intraperitoneally injected with 55 mg/kg STZ after weighing (STZ required for fast injection, to be completed within 10 min), then put back to the cage to ensure that rat has sufficient drinking water in the period of 24 h, and the rats of normal control group were injected with citric acid buffer (pH 4.5) in the same volume. After 3 weeks of STZ injection, retinal venous blood was collected, and blood glucose ≥16.7 mmol/L was used as a molding standard, where the model of SHR rats that meet the above criteria is considered successful.
(§4) The route of administration is intragastrical, TBN is administered twice a day (fixed at 9:00-10:00 am and 3:00-4:00 pm), and Losartan is administered once a day (fixed at 9:00-10:00 am), continuously for 6 weeks.
The general situation and weight changes are observed after the establishment of the rat model, and the general situation includes the activity of rats, mental state, hair color, diet, drinking water and urine volume, etc., and water consumption and feed weights were recorded each week.

STZ-induced SHR rats [4] = assay: Serum iron ion content in STZ-induced SHR rats; type: in vivo, rat; details: TBN group (T60), 60 mg/kg
Method: as §3, §4
At the end of the experiment, after rats were anesthetized, blood was taken from the rear abdominal aortic pulse, allowed to stand for 1 h, centrifuged at 3000 rmp centrifuged for 10 min to collect supernatant, and the iron ion content was measured by using an automated biochemical device and the level of red cells in serum was detected by using kits.

[5] = tested on: cisplatin-induced C57BL/6J mice; assay: Serum erythropoietin in cisplatin-induced renal anemia C57BL/6J mice; type: in vivo, mouse
Method: Modeling method: the animals were randomly divided into 5 groups, i.e., normal control group, model group, three treatment groups, wherein the normal control group was injected with equal volume of normal saline, the model group and three treatment groups were intraperitoneally injected with cisplatin (CDDP) 5 mg/kg once a week, for 4 weeks.
The route of administration is intragastrical. TBN is administered twice a day (fixed at 9:00-10:00 am and 3:00-4:00 pm), and Roxadustat is administered once every two days (fixed at 9:00-10:00 am), for 4 weeks.
At the end of the experiment, after rats were anesthetized, the blood was taken from the abdominal aorta, allowed to stand for 1 hour, centrifuged at 3000 rpm for 10 min, and stored in aliquots at −80° C. The content of erythropoietin in the serum was detected by using of a kit. After the administration, compared with the model group, the TBN treatment groups can increase the expression of erythropoietin to varying degrees.

EPO mRNA = EPO mRNA by RT-PCR in CoCl2-induced HepG2 cell hypoxia model; details: 30 μM, 24 h, HepG2 cells, 50 μM CoCl2

Cc1nc(C)c(/C=[N+](\[O-])C(C)(C)C)nc1C [TBN]
renal pathological changes (HE) (STZ-induced DKD rats; 60 mg/kg i.g. twice/day, 6 weeks): improved the most
renal pathological changes (HE) (STZ-induced DKD rats; each dose group of TBN (10, 30, 60 mg/kg i.g. twice/day, 6 weeks)): improved
iron content in the serum (db/db mice [1]; 10 mg/kg): 30.84±5.92
iron content in the serum (db/db mice [1]; 30 mg/kg): 36.20±11.89
effect of increasing iron ions compared with positive control drug (db/db mice [1]; each dose group of TBN vs Losartan): stronger than the positive control drug group
serum EPO content (db/db mice [2]; 10 mg/kg): 265.04±79.32
serum EPO content (db/db mice [2]; 30 mg/kg): 288.80±36.78
increase in serum EPO content compared with positive control drug (db/db mice [2]; each dose group of TBN): stronger than that of the positive control drug
serum EPO level (db/db mice [2]; spontaneous db/db mice, TBN administration): tendency to increase
body weight vs SHR-STZ group (STZ-induced SHR rats [3]): increased significantly
content of iron ions in serum vs model group (STZ-induced SHR rats [4]): significantly increased
expression/content of erythropoietin vs model group ([5]; TBN treatment groups (30, 60 mg/kg), to varying degrees, dose dependence): increase
efficacy on EPO content compared with positive control drug ([5]; high-dose group (60 mg/kg) vs Roxadustat 10 mg/kg): stronger than that of the positive control drug
expression of EPO mRNA (EPO mRNA): significantly increase
